Experiments:
[1] = tested on: CEM-SS; assay: Compound was tested for the prevention of cytopathic effect of HIV-1 RF in CEM-SS cells; type: functional, cell-based; conditions: Homo sapiens
[2] = tested on: CEM-SS; assay: Compound was tested for cytotoxicity in uninfected CEM-SS cells; type: functional; conditions: Homo sapiens
[3] = tested on: MT4; assay: Compound was tested for the inhibition of cytopathic effect of HIV-1 N119 in MT-4 cells; type: functional, Homo sapiens
[4] = tested on: MT4; assay: Compound was tested for the inhibition of cytopathic effect of HIV-1 6S in MT-4 cells; type: functional, Homo sapiens

SMILES	EC50 [1]	CC50 [2]	Activity [3]	Activity [4]
COC(=O)CCCC=C(c1cc(Cl)c(OC)c(C(=O)OC)c1)c1cc(Cl)c(OC)c(C(=O)OC)c1	0.013 µM	31.6 µM	–	–
CCCCCC=C(c1cc(Br)c(OC)c(C(=O)OC)c1)c1cc(Br)c(OC)c(C(=O)OC)c1	–	–	151 µM	0.56 µM
